We go through 31 molecules from patent publication US20220340875A1, “METHODS OF CULTURING AND/OR EXPANDING STEM CELLS AND/OR LINEAGE COMMITTED PROGENITOR CELLS USING AMIDO COMPOUNDS” (IDEAYA BIOSCIENCES, INC., priority 2018, published 2022).

pIC50: −log10 of the molar value.

The assay deals with T1, hAhR (Homo sapiens, UniProt P35869).
T1 construct: Stably integrated DRE-luciferase cell lines were generated by transducing the both cell lines with Cignal XRE luciferase reporter (Qiagen) lentiviral particles; endogenous in cells
T1 sequence (P35869 11-848): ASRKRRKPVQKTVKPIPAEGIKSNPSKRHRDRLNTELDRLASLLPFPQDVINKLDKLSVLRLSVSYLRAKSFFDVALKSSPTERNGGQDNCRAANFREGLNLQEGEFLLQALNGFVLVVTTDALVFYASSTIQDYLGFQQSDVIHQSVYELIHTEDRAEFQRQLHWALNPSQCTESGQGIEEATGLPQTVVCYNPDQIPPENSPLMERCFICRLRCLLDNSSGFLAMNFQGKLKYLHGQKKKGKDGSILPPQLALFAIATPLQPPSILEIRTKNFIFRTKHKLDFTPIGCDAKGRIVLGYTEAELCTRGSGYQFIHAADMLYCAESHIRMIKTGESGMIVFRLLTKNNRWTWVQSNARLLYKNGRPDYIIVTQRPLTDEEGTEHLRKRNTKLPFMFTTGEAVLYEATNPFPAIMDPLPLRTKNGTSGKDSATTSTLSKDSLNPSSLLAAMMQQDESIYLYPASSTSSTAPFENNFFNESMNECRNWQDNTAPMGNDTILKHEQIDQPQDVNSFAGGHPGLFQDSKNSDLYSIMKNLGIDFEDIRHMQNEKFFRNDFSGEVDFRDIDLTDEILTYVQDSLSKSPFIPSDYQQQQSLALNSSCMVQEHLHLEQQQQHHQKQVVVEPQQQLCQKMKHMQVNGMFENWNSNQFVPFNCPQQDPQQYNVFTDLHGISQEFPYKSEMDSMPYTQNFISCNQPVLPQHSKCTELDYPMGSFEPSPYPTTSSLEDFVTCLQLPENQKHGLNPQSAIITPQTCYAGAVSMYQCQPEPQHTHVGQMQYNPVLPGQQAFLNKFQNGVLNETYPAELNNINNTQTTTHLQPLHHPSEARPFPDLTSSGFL
The experiment in a line: AhR DRE-luciferase reporter transcriptional assay, antagonist mode (TCDD-induced). In kind it is cell-based. As to conditions: HEPG2 DRE-Luc cells, 3 nM TCDD, 24 hour incubation, relative IC50. An outline of the steps: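 HepG2 cells carrying a stably integrated DRE-luciferase reporter, in OptiMEM with 0.5% FBS; semi-log compound doses added with 3 nM TCDD, 24 h incubation, firefly luciferase read-out. Percent maximal activity normalised between vehicle ± TCDD; relative IC50 taken as half-reduction between curve plateaus.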
On to `Cc1cc(N(C)C(=O)c2ccnn2C)ccc1-c1ncc2nc(C(F)(F)F)ccc2n1` [Example 187, N,1-dimethyl-N-(3-methyl-4-(6-(trifluoromethyl)pyrido[3,2-d]pyrimidin-2-yl)phenyl)-1H-pyrazole-5-carboxamide], for which the pIC50 was more than 6.70. The result for `Cc1cc(-c2ncc3cc(C(F)(F)F)ccc3n2)ccc1N(C)C(=O)c1nnn[nH]1` [Example 133, N-methyl-N-(2-methyl-4-(6-(trifluoromethyl)quinazolin-2-yl)phenyl)-1H-tetrazole-5-carboxamide] reads 5.00 to 6.00. In the case of `Cc1cc(-c2ccc3cc(F)ccc3n2)ccc1NC(=O)c1cccnc1` [Example 027, N-(4-(6-fluoroquinolin-2-yl)-2-methylphenyl)nicotinamide], the pIC50 was 6.00 to 6.30.

Regarding `Cc1cc(-c2ncc3cc(C(F)(F)F)ccc3n2)ccc1NC(=O)c1cn(C)nc1C` [Example 219, 1,3-dimethyl-N-(2-methyl-4-(6-(trifluoromethyl)quinazolin-2-yl)phenyl)-1H-pyrazole-4-carboxamide], the pIC50 is more than 6.70.

For the molecule `Cc1cc(-c2ccc3cc(F)ccc3n2)ccc1NC(=O)c1ccccc1` [Example 023, N-(4-(6-fluoroquinolin-2-yl)-2-methylphenyl)benzamide], the pIC50 was 6.00 to 6.30. For the molecule `Cc1cc(-c2ccc3cnn(C)c3c2)ccc1NC(=O)c1ccnn1C` [Example 090, 1-Methyl-N-(2-methyl-4-(1-methyl-1H-indazol-6-yl)phenyl)-1H-pyrazole-5-carboxamide], the pIC50 is 5.00 to 6.00. Regarding `Cc1cc(-c2ncc3cc(C(F)(F)F)ccc3n2)ccc1N(C)C(=O)c1ccncc1` [Example 116, N-methyl-N-(2-methyl-4-(6-(trifluoromethyl)quinazolin-2-yl)phenyl)isonicotinamide], the pIC50 is more than 6.70. Molecule `Cc1cc(-c2nc3ccc(F)cc3s2)ccc1NC(=O)c1ccnn1C` [Example 098, N-(4-(6-fluorobenzo[d]thiazol-2-yl)-2-methylphenyl)-1-methyl-1H-pyrazole-5-carboxamide] gave a pIC50 of 5.00 to 6.00. For `Cc1cc(-c2ncc3cc(C(F)(F)F)ccc3n2)ccc1N(C)C(=O)c1ccnn1CC(N)=O` [Example 156, 1-(2-amino-2-oxoethyl)-N-methyl-N-(2-methyl-4-(6-(trifluoromethyl)quinazolin-2-yl)phenyl)-1H-pyrazole-5-carboxamide], the pIC50 was more than 6.70. `Cc1cc(-c2ncc3cc(C(F)(F)F)ccc3n2)ccc1N(C)C(=O)c1ccnc(C(N)=O)c1` [Example 152, N4-methyl-N4-(2-methyl-4-(6-(trifluoromethyl)quinazolin-2-yl)phenyl)pyridine-2,4-dicarboxamide] showed a pIC50 of more than 6.70. `Cc1cc(-c2ccc3cc(F)ccc3n2)ccc1NC(=O)c1ncco1` [Example 039, N-(4-(6-fluoroquinolin-2-yl)-2-methylphenyl)oxazole-2-carboxamide] had a pIC50 of 6.00 to 6.30. Next, `Cc1cc(-c2ncc3cc(C(F)(F)F)ccc3n2)ccc1N(C)C(=O)c1ccnn1CCN1CCOCC1` [Example 157, N-methyl-N-(2-methyl-4-(6-(trifluoromethyl)quinazolin-2-yl)phenyl)-1-(2-morpholinoethyl)-1H-pyrazole-5-carboxamide]: more than 6.70. In turn, `Cc1cc(C(=O)Nc2ccc(-c3ncc4cc(C(F)(F)F)ccc4n3)cc2C)ccn1` [Example 119, 2-methyl-N-(2-methyl-4-(6-(trifluoromethyl)quinazolin-2-yl)phenyl)isonicotinamide] had a pIC50 of more than 6.70. The result for `Cc1cc(-c2ccc3c(ccn3C)n2)ccc1NC(=O)c1ccnn1C` [Example 085, 1-methyl-N-(2-methyl-4-(1-methyl-1H-pyrrolo[3,2-b]pyridin-5-yl)phenyl)-1H-pyrazole-5-carboxamide] reads 5.00 to 6.00; that for `Cc1cc(-c2ccc3c(ccn3CC(F)(F)F)n2)ccc1NC(=O)c1ccnn1C` [Example 084, 1-methyl-N-(2-methyl-4-(1-(2,2,2-trifluoroethyl)-1H-pyrrolo[3,2-b]pyridin-5-yl)phenyl)-1H-pyrazole-5-carboxamide], 5.00 to 6.00. As for `Cc1cc(-c2ccc3nc(C(F)(F)F)ccc3n2)ccc1NC(=O)c1ccnn1C` [Example 102, 1-methyl-N-(2-methyl-4-(6-(trifluoromethyl)-1,5-naphthyridin-2-yl)phenyl)-1H-pyrazole-5-carboxamide], the pIC50 was more than 6.70. With `Cc1cc(NC(=O)c2ccnn2C)ccc1-c1ccc2cc(F)ccc2n1` [Example 050, N-(4-(6-fluoroquinolin-2-yl)-3-methylphenyl)-1-methyl-1H-pyrazole-5-carboxamide], the pIC50 was 6.00 to 6.30. In the case of `Cc1cc(-c2ncc3nc(C(F)(F)F)cc(C)c3n2)ccc1NC(=O)c1ccnn1CC(N)=O` [Example 170, 1-(2-amino-2-oxoethyl)-N-(2-methyl-4-(8-methyl-6-(trifluoromethyl)-pyrido[3,2-d]pyrimidin-2-yl)phenyl)-1H-pyrazole-5-carboxamide], the pIC50 was more than 6.70. `Cc1cc(-c2ncc3cc(C(F)(F)F)ccc3n2)ccc1N(C)C(=O)c1ccnn1CCO` [Example 211, 1-(2-hydroxyethyl)-N-methyl-N-(2-methyl-4-(6-(trifluoromethyl)quinazolin-2-yl)phenyl)-1H-pyrazole-5-carboxamide] had a pIC50 of more than 6.70. Molecule `Cc1cc(-c2ncc3cc(C(F)(F)F)ccc3n2)ccc1N(C)C(=O)c1nn(C)cc1C` [Example 214, N,1,4-trimethyl-N-(2-methyl-4-(6-(trifluoromethyl)quinazolin-2-yl)phenyl)-1H-pyrazole-3-carboxamide] showed a pIC50 of 6.30 to 6.70. Turning to `Cc1cc(-c2ccc3cc(C(F)(F)F)ccc3n2)c(C)cc1NC(=O)c1nn(C)cc1C` [Example 208, N-(2,5-dimethyl-4-(6-(trifluoromethyl)quinolin-2-yl)phenyl)-1,4-dimethyl-1H-pyrazole-3-carboxamide], the pIC50 is 5.00 to 6.00. Turning to `Cc1cc(N(C)C(=O)c2ccnn2C)c(F)cc1-c1ncc2nc(C(F)(F)F)cc(C)c2n1` [Example 179, N-(2-fluoro-5-methyl-4-(8-methyl-6-(trifluoromethyl)pyrido[3,2-d]pyrimidin-2-yl)phenyl)-N,1-dimethyl-1H-pyrazole-5-carboxamide], the pIC50 was 6.30 to 6.70. As to `Cc1cc(-c2ncc3cc(C(F)(F)F)ccc3n2)ccc1NC(=O)c1ccnn1C` [Example 112, 1-methyl-N-(2-methyl-4-(6-(trifluoromethyl)quinazolin-2-yl)phenyl)-1H-pyrazole-5-carboxamide], the pIC50 is more than 6.70. Next, `Cc1cc(-c2ccc3cc(F)ccc3n2)ccc1NC(=O)C1CCOCC1` [Example 025, N-(4-(6-fluoroquinolin-2-yl)-2-methylphenyl)tetrahydro-2H-pyran-4-carboxamide]: 5.00 to 6.00; `Cc1cnccc1C(=O)N(C)c1ccc(-c2ncc3cc(C(F)(F)F)ccc3n2)cc1C` [Example 122, N,3-dimethyl-N-(2-methyl-4-(6-(trifluoromethyl)quinazolin-2-yl)phenyl)isonicotinamide]: more than 6.70. As for `COc1cnccc1C(=O)Nc1ccc(-c2ncc3nc(C(F)(F)F)cc(C)c3n2)cc1C` [Example 184, 3-methoxy-N-(2-methyl-4-(8-methyl-6-(trifluoromethyl)pyrido[3,2-d]pyrimidin-2-yl)phenyl)isonicotinamide], the pIC50 is more than 6.70.

With `Cc1cc(-c2ccc3cc(C(F)(F)F)cc(C)c3n2)ccc1N(C)C(=O)c1ccnn1C` [Example 202, N,1-dimethyl-N-(2-methyl-4-(8-methyl-6-(trifluoromethyl)quinolin-2-yl)phenyl)-1H-pyrazole-5-carboxamide], the pIC50 was more than 6.70. For `Cc1cc(-c2ccc3cccc(F)c3n2)ccc1NC(=O)c1ccnn1C` [Example 018, N-(4-(8-fluoroquinolin-2-yl)-2-methylphenyl)-1-methyl-1H-pyrazole-5-carboxamide], the pIC50 was more than 6.70. On to `COc1cc(C(=O)N(C)c2ccc(-c3ncc4cc(C(F)(F)F)ccc4n3)cc2C)ccn1` [Example 143, 2-Methoxy-N-methyl-N-(2-methyl-4-(6-(trifluoromethyl)quinazolin-2-yl)phenyl)isonicotinamide], for which the pIC50 was more than 6.70. In turn, `COC(=O)N(C)c1ccc(-c2ncc3cc(C(F)(F)F)ccc3n2)cc1C` [Example 128, methyl methyl(2-methyl-4-(6-(trifluoromethyl)quinazolin-2-yl)phenyl)carbamate] gave a pIC50 of more than 6.70. On to `Cc1cc(-c2cc(C)c3ccccc3n2)ccc1NC(=O)OC(C)(C)C` [Example 015, tert-butyl (2-methyl-4-(4-methylquinolin-2-yl)phenyl)carbamate], for which the pIC50 was 5.00 to 6.00.
